Measured values from ChEMBL document CHEMBL3112558 (Bioorg Med Chem Lett, 2014).

Key:
Cytochrome P450 2C19 = Cytochrome P450 2C19 (Homo sapiens, UniProt P33261); assay: Inhibition of human CYP2C19
Cytochrome P450 1A2 = biological target: T1, Cytochrome P450 1A2 (Homo sapiens, UniProt P05177); assay: Inhibition of human CYP1A2
T1 sequence (P05177 whole entry): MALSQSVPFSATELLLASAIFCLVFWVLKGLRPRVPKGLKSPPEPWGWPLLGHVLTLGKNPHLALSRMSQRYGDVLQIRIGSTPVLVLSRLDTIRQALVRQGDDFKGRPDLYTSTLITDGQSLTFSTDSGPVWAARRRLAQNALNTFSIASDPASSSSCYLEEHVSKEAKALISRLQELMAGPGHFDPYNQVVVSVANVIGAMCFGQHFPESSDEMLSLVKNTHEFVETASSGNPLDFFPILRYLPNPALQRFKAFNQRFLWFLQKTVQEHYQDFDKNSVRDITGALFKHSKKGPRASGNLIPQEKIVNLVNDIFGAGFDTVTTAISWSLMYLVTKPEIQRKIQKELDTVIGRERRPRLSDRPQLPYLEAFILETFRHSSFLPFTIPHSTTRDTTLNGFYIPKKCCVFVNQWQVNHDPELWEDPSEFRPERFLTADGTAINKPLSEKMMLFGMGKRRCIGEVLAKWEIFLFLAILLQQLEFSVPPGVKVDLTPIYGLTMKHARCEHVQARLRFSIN

[1] = test system: Human immunodeficiency virus 1; assay: Antiviral activity against HIV1 by cell based assay; type: functional, organism-based
Protease = Protease (Human immunodeficiency virus 1, UniProt Q9YQ12); assay: Inhibition of HIV-1 protease
Cytochrome P450 2D6 = Cytochrome P450 2D6 (Homo sapiens, UniProt P10635); assay: Inhibition of human CYP2D6
Cytochrome P450 3A4 = Cytochrome P450 3A4 (Homo sapiens, UniProt P08684); assay: Inhibition of human CYP3A4-mdiated midazolam 1'-hydroxylase activity
Cytochrome P450 2C9 = Cytochrome P450 2C9 (Homo sapiens, UniProt P11712); assay: Inhibition of human CYP2C9
CYP3A4 = CYP3A4 (Homo sapiens, UniProt P08684); assay: Ratio of compound IC50 to ritonavir IC50 for human CYP3A4-mdiated midazolam 1'-hydroxylase activity; type: ADME; settings: probe midazolam, read-out: Ratio IC50
CYP3A4, sequence (P08684 whole entry): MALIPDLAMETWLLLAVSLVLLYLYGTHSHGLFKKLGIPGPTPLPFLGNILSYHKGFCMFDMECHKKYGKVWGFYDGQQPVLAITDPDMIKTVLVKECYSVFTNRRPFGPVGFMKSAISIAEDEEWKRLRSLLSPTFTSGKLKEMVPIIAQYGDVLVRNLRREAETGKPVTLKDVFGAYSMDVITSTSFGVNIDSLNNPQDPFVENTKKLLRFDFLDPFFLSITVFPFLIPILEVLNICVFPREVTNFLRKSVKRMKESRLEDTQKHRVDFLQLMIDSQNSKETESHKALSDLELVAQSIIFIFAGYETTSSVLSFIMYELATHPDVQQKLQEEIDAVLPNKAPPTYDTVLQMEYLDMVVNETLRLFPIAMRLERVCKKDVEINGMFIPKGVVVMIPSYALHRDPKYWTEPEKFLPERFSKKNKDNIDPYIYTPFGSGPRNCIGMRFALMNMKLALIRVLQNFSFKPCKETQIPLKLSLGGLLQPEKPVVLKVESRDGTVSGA

Cytochrome P450 2C9, sequence (P11712 whole entry): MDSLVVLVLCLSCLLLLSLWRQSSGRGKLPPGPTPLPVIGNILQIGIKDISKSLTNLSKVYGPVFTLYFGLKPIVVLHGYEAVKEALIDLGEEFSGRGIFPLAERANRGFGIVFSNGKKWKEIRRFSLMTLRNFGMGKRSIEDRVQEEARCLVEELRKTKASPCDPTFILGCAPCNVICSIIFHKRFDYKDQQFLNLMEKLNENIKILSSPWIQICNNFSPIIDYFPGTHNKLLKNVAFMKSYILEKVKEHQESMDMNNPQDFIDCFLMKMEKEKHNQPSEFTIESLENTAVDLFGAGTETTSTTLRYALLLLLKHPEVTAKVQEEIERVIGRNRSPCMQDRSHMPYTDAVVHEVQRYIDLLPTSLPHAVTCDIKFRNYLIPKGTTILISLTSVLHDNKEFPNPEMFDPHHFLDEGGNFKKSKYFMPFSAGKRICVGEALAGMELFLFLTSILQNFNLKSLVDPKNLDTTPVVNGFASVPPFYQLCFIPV
Cytochrome P450 2C19, sequence (P33261 whole entry): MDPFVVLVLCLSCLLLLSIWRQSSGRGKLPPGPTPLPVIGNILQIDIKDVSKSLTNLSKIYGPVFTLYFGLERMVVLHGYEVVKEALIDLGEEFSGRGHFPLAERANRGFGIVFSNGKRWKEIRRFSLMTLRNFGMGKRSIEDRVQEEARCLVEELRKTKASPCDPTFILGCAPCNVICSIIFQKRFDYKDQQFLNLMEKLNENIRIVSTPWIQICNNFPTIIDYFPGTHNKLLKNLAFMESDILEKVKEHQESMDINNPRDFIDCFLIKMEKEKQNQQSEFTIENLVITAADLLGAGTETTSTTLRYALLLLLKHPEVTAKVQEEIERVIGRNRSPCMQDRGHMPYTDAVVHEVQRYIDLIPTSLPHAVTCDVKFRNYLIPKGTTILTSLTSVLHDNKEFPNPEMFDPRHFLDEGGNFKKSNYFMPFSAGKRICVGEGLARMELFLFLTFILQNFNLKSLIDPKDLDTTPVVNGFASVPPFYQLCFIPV
Cytochrome P450 3A4, sequence (P08684 whole entry): as the sequence (P08684 whole entry) above
Protease, sequence (Q9YQ12 whole entry): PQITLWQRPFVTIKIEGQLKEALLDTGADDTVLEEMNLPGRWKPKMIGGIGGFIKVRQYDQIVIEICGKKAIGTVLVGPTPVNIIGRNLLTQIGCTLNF
Cytochrome P450 2D6, sequence (P10635 whole entry): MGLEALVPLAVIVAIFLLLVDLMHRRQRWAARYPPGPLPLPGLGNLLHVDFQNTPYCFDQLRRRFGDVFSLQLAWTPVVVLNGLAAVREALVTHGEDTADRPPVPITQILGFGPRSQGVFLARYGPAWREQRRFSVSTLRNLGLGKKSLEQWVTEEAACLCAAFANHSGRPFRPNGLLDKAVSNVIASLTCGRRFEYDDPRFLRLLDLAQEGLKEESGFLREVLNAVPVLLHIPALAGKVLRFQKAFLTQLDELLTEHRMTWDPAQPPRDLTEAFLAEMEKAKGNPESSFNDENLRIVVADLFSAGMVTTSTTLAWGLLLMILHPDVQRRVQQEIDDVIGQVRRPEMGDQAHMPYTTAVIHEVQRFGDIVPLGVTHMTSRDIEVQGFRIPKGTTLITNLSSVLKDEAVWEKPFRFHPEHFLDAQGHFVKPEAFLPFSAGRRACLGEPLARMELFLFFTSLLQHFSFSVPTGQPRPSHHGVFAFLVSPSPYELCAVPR

Structure (SMILES) | EC50 [1] | IC50 (Protease) | also measured
CC(C)c1nc(CN(C)C(=O)N[C@H](CCN2CCOCC2)C(=O)N[C@H](CC[C@H](Cc2ccccc2)NC(=O)OCc2cncs2)Cc2ccccc2)cs1 | > 30 µM | > 30 µM | IC50 (Cytochrome P450 2C19): 1300 nM; IC50 (Cytochrome P450 1A2): > 25 µM; IC50 (Cytochrome P450 2D6): 3100 nM
CC(=O)NCC[C@H](NC(=O)N(C)Cc1csc(C(C)C)n1)C(=O)N[C@H](CC[C@H](Cc1ccccc1)NC(=O)OCc1cncs1)Cc1ccccc1 | 18 µM | 2 µM | 
CC(C)c1nc(CN(C)C(=O)N[C@@H](CCNS(C)(=O)=O)C(=O)N[C@H](CC[C@H](Cc2ccccc2)NC(=O)OCc2cncs2)Cc2ccccc2)cs1 | > 30 µM | 8 µM | 
CN(Cc1cncs1)C(=O)N[C@@H](CO)C(=O)N[C@H](CC[C@H](Cc1ccccc1)NC(=O)OCc1cncs1)Cc1ccccc1 | 12 µM | 4.3 µM | 
CN(Cc1cncs1)C(=O)NCCC(=O)N[C@H](CC[C@H](Cc1ccccc1)NC(=O)OCc1cncs1)Cc1ccccc1 | 2.5 µM |  | IC50 (Cytochrome P450 3A4): 130 nM
CC(C)c1nc(CN(C)C(=O)N[C@@H](Cc2cn(C)cn2)C(=O)N[C@H](CC[C@H](Cc2ccccc2)NC(=O)OCc2cncs2)Cc2ccccc2)cs1 | > 30 µM | > 30 µM | 
CC(C)c1nc(CN(C)C(=O)N[C@@H](Cc2c[nH]cn2)C(=O)N[C@H](CC[C@H](Cc2ccccc2)NC(=O)OCc2cncs2)Cc2ccccc2)cs1 | > 10 µM | 3 µM | 
CC(C)[C@H](NC(=O)N(C)Cc1cscn1)C(=O)N[C@H](CC[C@H](Cc1ccccc1)NC(=O)OCc1cncs1)Cc1ccccc1 | 0.8 µM | 0.242 µM | IC50 (Cytochrome P450 3A4): 140 nM
Cc1nc(CN(C)C(=O)N[C@H](C(=O)N[C@H](CC[C@H](Cc2ccccc2)NC(=O)OCc2cncs2)Cc2ccccc2)C(C)C)cs1 | 0.4 µM | 0.035 µM | 
CC(C)c1nc(CN(C)C(=O)N[C@@H](CO)C(=O)N[C@H](CC[C@H](Cc2ccccc2)NC(=O)OCc2cncs2)Cc2ccccc2)cs1 | 1.5 µM | 0.05 µM | 
CC(C)[C@H](NC(=O)N(C)Cc1cncs1)C(=O)N[C@H](CC[C@H](Cc1ccccc1)NC(=O)OCc1cncs1)Cc1ccccc1 | 0.7 µM | 0.386 µM | IC50 (Cytochrome P450 3A4): 80 nM
CC(C)c1nc(CN(C)C(=O)N[C@@H](Cn2cccn2)C(=O)N[C@H](CC[C@H](Cc2ccccc2)NC(=O)OCc2cncs2)Cc2ccccc2)cs1 | 5 µM | 0.03 µM | 
CC(=O)NCC[C@H](NC(=O)N(C)Cc1csc(C(C)C)n1)C(=O)N[C@@H](CC[C@@H](Cc1ccccc1)NC(=O)OCc1cncs1)Cc1ccccc1 | > 30 µM | > 30 µM | IC50 (Cytochrome P450 2C19): > 25000 nM; IC50 (Cytochrome P450 1A2): > 25 µM; IC50 (Cytochrome P450 2C9): 15.5 µM; IC50 (Cytochrome P450 2D6): 800 nM
CC(C)c1nc(CN(C)C(=O)N[C@@H](CC(N)=O)C(=O)N[C@H](CC[C@H](Cc2ccccc2)NC(=O)OCc2cncs2)Cc2ccccc2)cs1 | 1 µM | 0.143 µM | 
CC(C)c1nc(CN(C)C(=O)NC(CN(C)C)C(=O)N[C@H](CC[C@H](Cc2ccccc2)NC(=O)OCc2cncs2)Cc2ccccc2)cs1 (some centres not stated) | 3 µM |  | 
O=C(N[C@@H](CC[C@@H](Cc1ccccc1)NC(=O)[C@H](CO)NC(=O)N(Cc1cncs1)C1CC1)Cc1ccccc1)OCc1cncs1 | > 30 µM | > 30 µM | 
O=C(N[C@H](CC[C@H](Cc1ccccc1)NC(=O)[C@H](CO)NC(=O)N(Cc1cncs1)C1CC1)Cc1ccccc1)OCc1cncs1 | 20 µM | 19.3 µM | 

Structure (SMILES) | EC50 [1] | IC50 (Protease) | also measured
COC[C@H](NC(=O)N(C)Cc1csc(C(C)C)n1)C(=O)N[C@H](CC[C@H](Cc1ccccc1)NC(=O)OCc1cncs1)Cc1ccccc1 | 0.65 µM |  | 
CC(C)c1nc(CN(C)C(=O)N[C@@H](CO)C(=O)N[C@@H](CC[C@@H](Cc2ccccc2)NC(=O)OCc2cncs2)Cc2ccccc2)cs1 | > 30 µM | > 30 µM | 
CC(C)c1nc(CN(C)C(=O)N[C@@H](CCN(C)C)C(=O)N[C@H](CC[C@H](Cc2ccccc2)NC(=O)OCc2cncs2)Cc2ccccc2)cs1 | 20 µM | > 30 µM | 
CC(C)c1nc(CN(C)C(=O)N[C@@H](CCN)C(=O)N[C@H](CC[C@H](Cc2ccccc2)NC(=O)OCc2cncs2)Cc2ccccc2)cs1 | > 30 µM | > 30 µM | IC50 (Cytochrome P450 2C19): > 25000 nM; IC50 (Cytochrome P450 1A2): > 25 µM; IC50 (Cytochrome P450 2C9): > 25 µM; IC50 (Cytochrome P450 2D6): 800 nM
CC(C)c1nc(CN(C(=O)N[C@@H](CO)C(=O)N[C@H](CC[C@H](Cc2ccccc2)NC(=O)OCc2cncs2)Cc2ccccc2)C2CC2)cs1 | 2.5 µM | 1.41 µM | 
CC(C)c1nc(CN(C)C(=O)N[C@@H](CC(=O)O)C(=O)N[C@H](CC[C@H](Cc2ccccc2)NC(=O)OCc2cncs2)Cc2ccccc2)cs1 | 10 µM | 0.01 µM | 
CC(C)c1nc(CN(C)C(=O)N[C@@H](CCO)C(=O)N[C@H](CC[C@H](Cc2ccccc2)NC(=O)OCc2cncs2)Cc2ccccc2)cs1 | 2.7 µM | 0.039 µM | 
CC(C)c1nc(CN(C(=O)N[C@H](C(=O)N[C@H](CC[C@H](Cc2ccccc2)NC(=O)OCc2cncs2)Cc2ccccc2)C(C)C)C2CC2)cs1 | 0.75 µM | 0.55 µM | IC50 (Cytochrome P450 3A4): 210 nM
CC(C)c1nc(CN(C)C(=O)N[C@@H](CCN2CCOCC2)C(=O)N[C@H](CC[C@H](Cc2ccccc2)NC(=O)OCc2cncs2)Cc2ccccc2)cs1 [COBICISTAT] | > 30 µM | > 30 µM | IC50 (Cytochrome P450 2C19): > 25000 nM; IC50 (Cytochrome P450 1A2): > 25 µM; IC50 (Cytochrome P450 2D6): 9200 nM
CC(C)c1nc(CN(C)C(=O)N[C@@H](Cc2cnc[nH]2)C(=O)N[C@@H](CC[C@@H](Cc2ccccc2)NC(=O)OCc2cncs2)Cc2ccccc2)cs1 | > 30 µM | > 30 µM | IC50 (Cytochrome P450 2C19): 2200 nM; IC50 (Cytochrome P450 1A2): 15 µM; IC50 (Cytochrome P450 2C9): 4.7 µM; IC50 (Cytochrome P450 2D6): 400 nM
CC(C)c1nc(CN(C)C(=O)N[C@@H](CCCCN)C(=O)N[C@H](CC[C@H](Cc2ccccc2)NC(=O)OCc2cncs2)Cc2ccccc2)cs1 | > 30 µM | > 30 µM | 
CNCC[C@H](NC(=O)N(C)Cc1csc(C(C)C)n1)C(=O)N[C@H](CC[C@H](Cc1ccccc1)NC(=O)OCc1cncs1)Cc1ccccc1 | > 30 µM | > 30 µM | 
CC(C)c1nc(CN(C)C(=O)N[C@@H](COCc2ccccc2)C(=O)N[C@H](CC[C@H](Cc2ccccc2)NC(=O)OCc2cncs2)Cc2ccccc2)cs1 | > 30 µM | 11.8 µM | 
CC(C)[C@H](NC(=O)N(C)Cc1cscn1)C(=O)N[C@@H](CC[C@@H](Cc1ccccc1)NC(=O)OCc1cncs1)Cc1ccccc1 | > 30 µM | > 30 µM | IC50 (Cytochrome P450 3A4): 120 nM
CC(C)c1nc(CN(C)C(=O)N[C@H](C(=O)N[C@@H](Cc2ccccc2)C[C@H](O)[C@H](Cc2ccccc2)NC(=O)OCc2cncs2)C(C)C)cs1 [RITONAVIR] | 0.05 µM |  | 
CC(C)[C@H](NC(=O)N(Cc1cscn1)C1CC1)C(=O)N[C@H](CC[C@H](Cc1ccccc1)NC(=O)OCc1cncs1)Cc1ccccc1 | 4 µM | 3.59 µM | IC50 (Cytochrome P450 3A4): < 100 nM; selectivity ratio (CYP3A4): 80
